Reference: patent publication US20260116868A1 (Arcus Biosciences, Inc., priority 2023, published 2026)
pEC50, pIC50: −log10 of the molar value. Read-outs that look alike come from different tables or passages of the source.

Columns and labels:
[1] = system: Jurkat cells; assay: IL-2 secretion assay in Jurkat cells activated with CD3/CD28 T Cell Activator; type: cell-based; settings: Homo sapiens, 24 h, read-out: IL-2 Secretion (EC50)
Outline: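 Jurkat cells in Opti-MEM were preincubated 1 h at 37° C with compound (final 10 μM to 300 pM, 16-point 1:2 dilution), then activated with human CD3/CD28 T Cell Activator for 24 h at 37° C. Supernatant IL-2 measured by AlphaLISA; EC50 from 4-parameter logistic fit.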

[2] = biological target: T1, Cbl-b (Homo sapiens, UniProt Q13191); assay: Cbl-b probe displacement HTRF binding assay; settings: 0.4 nM Cbl-b, 150 nM BODIPY probe
T1 construct: biotin (biotinylated protein)
T1 sequence (Q13191 whole entry, species assumed): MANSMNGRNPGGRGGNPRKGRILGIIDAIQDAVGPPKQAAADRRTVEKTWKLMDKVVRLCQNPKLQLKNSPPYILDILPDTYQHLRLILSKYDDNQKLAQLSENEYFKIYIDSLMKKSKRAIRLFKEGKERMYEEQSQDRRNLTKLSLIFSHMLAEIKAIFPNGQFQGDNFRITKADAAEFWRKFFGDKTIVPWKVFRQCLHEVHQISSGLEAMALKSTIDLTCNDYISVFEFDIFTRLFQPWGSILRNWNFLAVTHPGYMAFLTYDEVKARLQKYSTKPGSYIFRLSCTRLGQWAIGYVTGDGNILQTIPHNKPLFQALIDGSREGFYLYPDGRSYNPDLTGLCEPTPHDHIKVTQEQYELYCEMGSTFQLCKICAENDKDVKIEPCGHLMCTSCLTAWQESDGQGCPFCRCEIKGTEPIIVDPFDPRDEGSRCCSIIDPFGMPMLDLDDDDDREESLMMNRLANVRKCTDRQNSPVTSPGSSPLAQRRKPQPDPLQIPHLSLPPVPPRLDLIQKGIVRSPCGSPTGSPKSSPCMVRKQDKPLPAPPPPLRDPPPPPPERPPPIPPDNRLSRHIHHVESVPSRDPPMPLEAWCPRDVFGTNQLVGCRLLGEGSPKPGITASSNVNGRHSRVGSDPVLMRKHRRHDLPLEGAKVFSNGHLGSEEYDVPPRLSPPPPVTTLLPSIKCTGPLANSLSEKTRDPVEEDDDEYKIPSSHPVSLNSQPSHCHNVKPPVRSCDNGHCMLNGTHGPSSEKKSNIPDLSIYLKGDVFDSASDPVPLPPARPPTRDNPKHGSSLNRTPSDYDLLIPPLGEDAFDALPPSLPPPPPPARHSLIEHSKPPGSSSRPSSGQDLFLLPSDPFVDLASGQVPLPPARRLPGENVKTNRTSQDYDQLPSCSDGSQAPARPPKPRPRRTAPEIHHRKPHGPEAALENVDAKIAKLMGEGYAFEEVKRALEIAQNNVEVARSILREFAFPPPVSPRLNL
Outline: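 Binding IC50 from four-parameter fit of HTRF signal loss, normalised to DMSO (0%) and no-protein (100%) wells. Biotinylated Cbl-b 0.4 nM was preincubated 60 min with compound (20-point 1:2 dilution) before 15 min with 150 nM BODIPY probe; Tb-streptavidin detection.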

[3] = Jurkat cells, CD3/CD28 T Cell Activator, IL-2 AlphaLISA

Structure (SMILES)	pEC50 [1, 3]	pIC50 [2]	pEC50 ([1]; Jurkat)
C[C@H]1CCCN(Cc2cc(C(=O)Nc3cc(-c4ccc(F)cc4C(=O)N4CC(F)C4)cc(C4CC4)n3)c(=O)n(C3CC3)c2)C1 [Example 65, N-(6-cyclopropyl-4-{4-fluoro-2-[(3-fluoro-1-azetidinyl)carbonyl]phenyl}-2-pyridyl)-5-{[(S)-3-methyl-1-piperidyl]methyl}-1-cyclopropyl-2-oxo-1,2-dihydronicotinamide]	6.00 to 7.00	> 7.00	
C[C@H]1CCCN(Cc2cc(C(=O)Nc3cc(C#N)cc(-c4ccc(F)cc4C(=O)N4CC(F)C4)c3)c(=O)n(C3CC3)c2)C1 [Example 66, N-{5-cyano-4′-fluoro-2′-[(3-fluoro-1-azetidinyl)carbonyl]-3-biphenylyl}-5-{[(S)-3-methyl-1-piperidyl]methyl}-1-cyclopropyl-2-oxo-1,2-dihydronicotinamide]	5.30 to 6.00	6.00 to 7.00	
COCCNCc1cc(C(=O)Nc2cc(-c3ccc(F)cc3C(=O)N3CC(F)(F)C3)cc(C3CC3)c2)c(=O)n(C2CC2)c1 [Example 69, N-{5-cyclopropyl-2′-[(3,3-difluoro-1-azetidinyl)carbonyl]-4′-fluoro-3-biphenylyl}-1-cyclopropyl-5-[(2-methoxyethylamino)methyl]-2-oxo-1,2-dihydronicotinamide]	6.00 to 7.00	> 7.00	
COCCNCc1cc(C(=O)Nc2cc(-c3ccc(F)cc3-n3nccc3C)cc(C3CC3)n2)c(=O)n(C2CC2)c1 [Example 70, 1-Cyclopropyl-N-[6-cyclopropyl-4-[4-fluoro-2-(5-methylpyrazol-1-yl)phenyl]pyridin-2-yl]-5-[(2-methoxyethylamino)methyl]-2-oxopyridine-3-carboxamide]	6.00 to 7.00	> 7.00	
COCCNCc1cc(C(=O)Nc2cc(-c3ccc(F)cc3-n3nncc3C)cc(C3CC3)n2)c(=O)n(C2CC2)c1 [Example 71, N-{6-cyclopropyl-4-[4-fluoro-2-(5-methyl-1H-1,2,3-triazol-1-yl)phenyl]-2-pyridyl}-1-cyclopropyl-5-[(2-methoxyethylamino)methyl]-2-oxo-1,2-dihydronicotinamide]	> 7.00	> 7.00	
COCCNCc1cc(C(=O)Nc2cc(-c3ccc(F)cc3-n3nncc3CF)cc(C3CC3)n2)c(=O)n(C2CC2)c1 [Example 72, 1-Cyclopropyl-N-[6-cyclopropyl-4-[4-fluoro-2-[5-(fluoromethyl)triazol-1-yl]phenyl]pyridin-2-yl]-5-[(2-methoxyethylamino)methyl]-2-oxopyridine-3-carboxamide]	6.00 to 7.00	> 7.00	
COCCNCc1cc(C(=O)Nc2cc(-c3ccc(F)cc3-n3cc(CF)nn3)cc(C3CC3)n2)c(=O)n(C2CC2)c1 [Example 73, 1-Cyclopropyl-N-[6-cyclopropyl-4-[4-fluoro-2-[4-(fluoromethyl)triazol-1-yl]phenyl]pyridin-2-yl]-5-[(2-methoxyethylamino)methyl]-2-oxopyridine-3-carboxamide]	5.30 to 6.00	6.00 to 7.00	
Cc1ccnnc1-c1cc(F)ccc1-c1cc(NC(=O)c2cc(CN3CCO[C@H](C)C3)cn(C3CC3)c2=O)nc(C2CC2)c1 [Example 74, 1-cyclopropyl-N-[6-cyclopropyl-4-[4-fluoro-2-(4-methylpyridazin-3-yl)phenyl]pyridin-2-yl]-5-[[(2R)-2-methylmorpholin-4-yl]methyl]-2-oxopyridine-3-carboxamide]	5.30 to 6.00	6.00 to 7.00	
Cc1cccnc1-c1cc(C#N)ccc1-c1cc(NC(=O)c2cc(CN3CCO[C@H](C)C3)cn(C3CC3)c2=O)nc(C2CC2)c1 [Example 75, N-[4-[4-cyano-2-(3-methylpyridin-2-yl)phenyl]-6-cyclopropylpyridin-2-yl]-1-cyclopropyl-5-[[(2R)-2-methylmorpholin-4-yl]methyl]-2-oxopyridine-3-carboxamide]	5.30 to 6.00	6.00 to 7.00	
C[C@H]1CCCN(Cc2cc(C(=O)Nc3cccc(C4(c5nncn5C)CC(F)(F)C4)c3)c(=O)n(C3CC3)c2)C1 [Example 79, 1-cyclopropyl-N-[3-[3,3-difluoro-1-(4-methyl-1,2,4-triazol-3-yl)cyclobutyl]phenyl]-5-[[(3S)-3-methylpiperidin-1-yl]methyl]-2-oxopyridine-3-carboxamide]	6.00 to 7.00	6.00 to 7.00	
CO[C@H]1C[C@@](c2cccc(NC(=O)c3cc(CN4CCC[C@H](C)C4)cn(C4CC4)c3=O)c2)(c2nncn2C)C1 [Example 80, 1-cyclopropyl-N-[3-[3-methoxy-1-(4-methyl-1,2,4-triazol-3-yl)cyclobutyl]phenyl]-5-[[(3S)-3-methylpiperidin-1-yl]methyl]-2-oxopyridine-3-carboxamide]	6.00 to 7.00	6.00 to 7.00	
CO[C@H]1C[C@](c2cccc(NC(=O)c3cc(CN4CCC[C@H](C)C4)cn(C4CC4)c3=O)c2)(c2nncn2C)C1 [Example 81, 1-cyclopropyl-N-[3-[3-methoxy-1-(4-methyl-1,2,4-triazol-3-yl)cyclobutyl]phenyl]-5-[[(3S)-3-methylpiperidin-1-yl]methyl]-2-oxopyridine-3-carboxamide]	6.00 to 7.00	6.00 to 7.00	
CO[C@@H](C)CNCc1cc(C(=O)Nc2cc(-c3ccc(C#N)cc3C(=O)N3CC(F)(F)C3)cc(C3CC3)n2)c(=O)n(C2CC2)c1 [Example 95, N-(4-{4-cyano-2-[(3,3-difluoro-1-azetidinyl)carbonyl]phenyl}-6-cyclopropyl-2-pyridyl)-5-{[(S)-2-methoxypropylamino]methyl}-1-cyclopropyl-2-oxo-1,2-dihydronicotinamide]	> 7.00	> 7.00	
CO[C@@H](C)CNCc1cc(C(=O)Nc2cc(-c3c(F)cc(Cl)cc3C(=O)N3CC(F)(F)C3)cc(C3CC3)n2)c(=O)n(C2CC2)c1 [Example 102, N-[4-[4-chloro-2-(3,3-difluoroazetidine-1-carbonyl)-6-fluorophenyl]-6-cyclopropylpyridin-2-yl]-1-cyclopropyl-5-[[[(2S)-2-methoxypropyl]amino]methyl]-2-oxopyridine-3-carboxamide]	> 7.00	> 7.00	
CO[C@@H](C)CNCc1cc(C(=O)Nc2cc(-c3ccc(Cl)cc3C(=O)N3CC(F)(F)C3)cc(C3CC3)n2)c(=O)n(C)c1 [Example 105, N-[4-[4-chloro-2-(3,3-difluoroazetidine-1-carbonyl)phenyl]-6-cyclopropylpyridin-2-yl]-5-[[[(2S)-2-methoxypropyl]amino]methyl]-1-methyl-2-oxopyridine-3-carboxamide]	> 7.00	> 7.00	
CC(C)CNCc1cc(C(=O)Nc2cc(-c3ccc(Cl)cc3C(=O)N3CC(F)(F)C3)cc(C3CC3)n2)c(=O)n(C)c1 [Example 106, N-[4-[4-chloro-2-(3,3-difluoroazetidine-1-carbonyl)phenyl]-6-cyclopropylpyridin-2-yl]-1-methyl-5-[(2-methylpropylamino)methyl]-2-oxopyridine-3-carboxamide]	> 7.00	> 7.00	
Cn1cc(CNC[C@@H]2CCCO2)cc(C(=O)Nc2cc(-c3ccc(Cl)cc3C(=O)N3CC(F)(F)C3)cc(C3CC3)n2)c1=O [Example 107, N-[4-[4-chloro-2-(3,3-difluoroazetidine-1-carbonyl)phenyl]-6-cyclopropylpyridin-2-yl]-1-methyl-2-oxo-5-[[[(2S)-oxolan-2-yl]methylamino]methyl]pyridine-3-carboxamide]	> 7.00	> 7.00	
CC(C)CNCc1cc(C(=O)Nc2cc(-c3c(F)cc(Cl)cc3C(=O)N3CC(F)(F)C3)cc(C3CC3)n2)c(=O)n(C2CC2)c1 [Example 144, N-(4-{4-chloro-2-[(3,3-difluoro-1-azetidinyl)carbonyl]-6-fluorophenyl}-6-cyclopropyl-2-pyridyl)-1-cyclopropyl-5-[(isobutylamino)methyl]-2-oxo-1,2-dihydronicotinamide]		> 7.00	> 7.00
CO[C@H]1CCC[C@@H]1NCc1cc(C(=O)Nc2cc(-c3ccc(C#N)cc3C(=O)N3CC(F)(F)C3)cc(C3CC3)n2)c(=O)n(CC(F)(F)F)c1 [Example 154, N-[4-[4-cyano-2-(3,3-difluoroazetidine-1-carbonyl)phenyl]-6-cyclopropylpyridin-2-yl]-5-[[[(1S,2S)-2-methoxycyclopentyl]amino]methyl]-2-oxo-1-(2,2,2-trifluoroethyl)pyridine-3-carboxamide]	> 7.00	> 7.00	
